“Also recorded” adds a separate entry of the source.
Legend:
ISC-enriched organoids = experiment: Primary screen, 384-well 2.5-D organoid differentiation (ENR+CD, 6 days, Target Selective Inhibitor Library, vs whole-plate median): ATP (CellTiter-Glo 3D, CTG); conditions: for Z.CTG / SSMD.CTG: primary screen; for Z.CTG: standard z score; for SSMD.CTG: strictly standardized mean difference
[1] = system: ENR+CD differentiating organoids; experiment: Longitudinal single-cell RNA-seq (Seq-Well) of organoid differentiation, ENR+CD with or without 160 nM KPT-330; type: cell-based, murine
Excerpt: For time points beyond 2 days, media was refreshed every other day. Following the Seq-Well protocol Applicants followed a standard library preparation, sequencing, and alignment process (see Methods). […] Single-cell RNA-sequencing. A single-cell suspension was obtained from organoids cultured under conditions for the differentiation time course as described above. Applicants utilized the Seq-Well platform for massively parallel scRNA-seq to capture transcriptomes of single cells on barcoded mRNA capture beads. […] In brief, 20,000 cells from one organoid condition were loaded onto one array containing 100,000 barcoded mRNA capture beads. The loaded arrays containing cells and beads were then sealed using a polycarbonate membrane with a pore size of […], which allows for exchange of buffers but retains biological molecules confined within each microwell. Subsequent exchange of buffers allows for cell lysis, transcript hybridization, and bead recovery before performing reverse transcription en masse. Following reverse transcription and exonuclease treatment to remove excess primers, PCR amplification was carried out using KAPA HiFi PCR Mastermix with 2,000 beads per 50 μL reaction volume. Libraries were then pooled and purified using Agencourt AMPure XP beads (Beckman Coulter, A63881) by a 0.6×SPRI followed by a 0.8×SPRI and quantified using Qubit […] (Thermo Fisher). Libraries were constructed using the Nextera Tagmentation method on a total of 800 pg of pooled cDNA library per sample. […] Arrays were sequenced with an Illumina NovaSeq System. The read structure was paired end with Read 1 starting from a custom read 1 primer containing 20 bases with a 12 bp cell barcode and 8 bp unique molecular identifier (UMI) and Read 2 being 50 bases containing transcript information. Single-cell RNA-sequencing computational pipelines and analysis. […] Briefly, for each sequencing run, raw sequencing data was converted to demultiplexed FASTQ files using bcl2fastq2 based on Nextera N700 indices corresponding to individual samples/arrays. […] Individual reads were tagged according to the 12-bp barcode sequencing and the 8-bp UMI contained in Read 1 of each fragment. Following alignment, reads were binned onto 12-bp cell barcodes and collapsed by their 8-bp UMI. Digital gene expression matrices (e.g. cell by gene tables) for each sample were obtained from quality filtered and mapped reads and UMI-collapsed data, are deposited in GSE100274, and were utilized as input into Seurat v3 for further analysis. […] Applicants collected 17 samples at the following timepoints: 6 hours (0.25 days), and 1, 2, 3, 4, or 6 days. […] For time points beyond 2 days, media was refreshed every other day. […] Murine and human single-cell RNA-sequencing and alignment. […] Excess Matrigel was removed per previously described washing protocol, and organoids were resuspended in TrypLE at 37 C for 15 min, with vigorous homogenization through a p200 pipette tip every 5 min. After 15 min, the suspension was passed through a 30 uM cell strainer twice, and counted under brightfield microscopy with trypan blue staining for viable single cells. For human organoid scRNA-seq, antibody-based cell hashing was performed, with all samples pooled following labeling and three washes in FACS buffer to remove excess antibody. Each sample was manually counted to equally weight in cell pools, and then the pool was split and processed as four identical samples.

O=C(/C=C\n1cnc(-c2cc(C(F)(F)F)cc(C(F)(F)F)c2)n1)NNc1cnccn1 [KPT-330]
Z.CTG (ISC-enriched organoids; Dose 0.08 uM): 0.503 | Z.CTG (ISC-enriched organoids; Dose 0.40 uM): −1.569 | Z.CTG (ISC-enriched organoids; Dose 2.00 uM): −2.135 | Z.CTG (ISC-enriched organoids; Dose 10.00 uM): −4.480 | toxicity at concentrations higher than 160 nM (ISC-enriched organoids; primary screening): higher concentrations proved toxic | SSMD.CTG (ISC-enriched organoids; 1st of the 4 dose lines of the treatment (dose not given)): 0.686 | SSMD.CTG (ISC-enriched organoids; 2nd of the 4 dose lines of the treatment (dose not given)): −0.942 | SSMD.CTG (ISC-enriched organoids; 3rd of the 4 dose lines of the treatment (dose not given)): −2.044 | SSMD.CTG (ISC-enriched organoids; 4th of the 4 dose lines of the treatment (dose not given)): −2.988 | organoid cell type composition over differentiation time course ([1]; 160 nM KPT-330 vs control, day 0.25-6): enhances stem conversion to mature cells; also recorded: relative depletion of stem I (and stem II & III) and enteroendocrine cells over time along with the corresponding enrichment of enterocytes and Paneth cells | inferred signaling pathway activity (PROGENy), effect of KPT-330 ([1]; Cohen's d per pathway and cell type): pan-epithelial increase in stress-associated Trail signaling | inferred upstream TF activity clusters (DoRothEA), effect of KPT-330 ([1]; Fisher's exact test per cell type): depletion of cell cycle cluster 0 and enrichment in stress response cluster 6 | active and quiescent ISC signature ([1]; early stem cell populations, KPT-330 vs control): induces a quiescent ISC signature and reduces an active ISC signature; also recorded: transition into quiescence | differentially expressed genes, KPT-330 treated vs untreated ([1]; stem II/III populations, day 0.25-2): most significantly enriched (Xpo1) and depleted (Kpnb1 | gene set enrichment analysis (MSigDB hallmark v7) ([1]; stem II/III populations, day 0.25-2, FDR<0.05): suppresses programs downstream of mitogen-driven signaling
